Results on 11 compounds are retold here after patent US20150345047A1, “SYSTEMS AND METHODS FOR IDENTIFYING DRUG COMBINATIONS FOR REDUCED DRUG RESISTANCE IN CANCER TREATMENT” (Memorial Sloan Kettering Cancer Center, priority 2014, published 2015).

Common to all, as to type: cell-based
One assay has as its system AKTpS473. Put plainly: Western blot IC40 of downstream effector readout. To be noted: concentration inhibiting AKTpS473 readout by 40%, SkMel133. The procedure: (§1) In total, cells were treated with 89 unique perturbations (Table 3). In paired combinations, each drug concentration was selected to inhibit the readout for the presumed target or the downstream effectors by 40% (IC40) as determined by Western Blot experiments. In single agent perturbations, each drug is applied at two different concentrations, IC40 and 2×IC40.

For the next assay, the system named is P27/Kip1. The assay can be described thus: Western blot IC40 of downstream effector readout. To be noted: concentration changing P27/Kip1 readout by 40%, SkMel133. The procedure:
as §1

A further assay relates to c-Myc. The assay can be described thus: Western blot of c-Myc expression. To be noted: 24 hours after drug treatment, SkMel133. The procedure:
(§2) FIGS. 6A-6E illustrate the combined targeting of c-Myc with MEK and BRAF leads to synergistic response in melanoma cells. […] The leftward shift of isocurves implies synergistic interactions between the applied perturbations. u denotes strength of in silico perturbations. […] The BRD4 level is unchanged in response to JQ1 treatment. […] C-Myc expression is targeted with BRD4 inhibitor, JQ1. […] Cell viability is measured using the resazurin assay. […] The combination index (CI) calculated using the drug dose response curves quantifies the drug interactions between JQ1, MEKi and RAFi (left panel). CI for a given level of inhibition is a measure of the fractional shift between the combination doses (C1 and C2) and the single agent's inhibitory concentration (Cx,1, Cx,2). It is formulated as CI=(C1/Cx,1)[…](C2/Cx,2). Amax is the response of melanoma cells to JQ1, MEKi and RAFi at highest doses applied (right panel). 1-Amax is the fraction of cells alive in response to highest drug dose normalized with respect to the non-drug treated condition. […] 86% of cells are in G1 state 48 hours after JQ1 treatment, while 42% of the cells are in G1 state before drug treatment (error bars: ±SEM in 3 biological replicates).
First, it was postulated whether c-Myc levels in SkMel133 cells could be targeted using JQ1. […]

Another assay concerns SkMel133 cells. The assay can be described thus: Cell viability, resazurin assay. To be noted: highest doses applied. On the procedure:
All phenotypic measurements were made in perturbation conditions identical to those in proteomic measurements. Cell viability and cell cycle progression were measured 72 hours after drug treatment using the Resazurin assay and flow cytometry analysis respectively. The percentage of cells in the G1, G2/M, and S phases and sub-G1 fraction were recorded based on the respective distribution of DNA content in each phase.

The next assay concerns BRD4. The assay can be described thus: Western blot of BRD4 level. The settings on record: 24 hours after treatment. The procedure:
as §2

A further assay relates to 4EBP1pS65. Put plainly: Western blot IC40 of downstream effector readout. The settings on record: concentration inhibiting 4EBP1pS65 readout by 40%, SkMel133. The procedure: as §1
In a further assay the test system is GSK3pS21. Put plainly: Western blot IC40 of downstream effector readout. To be noted: concentration inhibiting GSK3pS21 readout by 40%, SkMel133. On the procedure: as §1
The next assay deals with MAPK1pT202. The assay can be described thus: Western blot IC40 of downstream effector readout. The settings on record: concentration inhibiting MAPK1pT202 readout by 40%, SkMel133. The procedure: as §1
The test system of a further assay is S6pS240. Put plainly: Western blot IC40 of downstream effector readout. To be noted: concentration inhibiting S6pS240 readout by 40%, SkMel133. On the procedure:
as §1

A further assay has as its system STAT3pY705. The assay can be described thus: Western blot IC40 of downstream effector readout. To be noted: concentration inhibiting STAT3pY705 readout by 40%, SkMel133. The procedure: as §1

`O=c1[nH]c2ccccc2n1C1CCN(Cc2ccc(-c3nc4cc5nc[nH]c5cc4nc3-c3ccccc3)cc2)CC1` [AKTi 1/2]: the “Dose 1 (IC40)” value with AKTpS473 turned out to be 5.000 nM. Regarding `O=C(CCCCCCSc1ccc2ccccc2c1)NO` [HNHA], the “Dose 1 (IC40)” value in the assay on P27/Kip1 is given as 6,000 nM. For `Cc1sc2c(c1C)C(c1ccc(Cl)cc1)=N[C@@H](CC(=O)OC(C)(C)C)c1nnc(C)n1-2` [JQ1], the c-Myc expression level result in the assay with c-Myc is on record as “reduced”. Further, the “maximal effect level (Amax, response to the drugs at highest doses)” value in the assay on SkMel133 cells is 10%. In addition, in the assay on BRD4, the BRD4 level result is given as “unchanged”.

Regarding `COc1ccc(C2=NC(c3ccc(Cl)cc3)C(c3ccc(Cl)cc3)N2C(=O)N2CCNC(=O)C2)c(OC(C)C)c1` (stereo not shown) [Nutlin], the “Dose 1 (IC40)” value with 4EBP1pS65 was 3,000 nM. Regarding `CC(C)(C)c1nc2c3cc[nH]c(=O)c3c3cc(F)ccc3c2[nH]1` [P6], the “Dose 1 (IC40)” value with GSK3pS21 was determined as 20 nM. As for `O=C(NOC[C@H](O)CO)c1ccc(F)c(F)c1Nc1ccc(I)cc1F` [PD0325901], the “Dose 1 (IC40)” value in the assay with MAPK1pT202 is listed as 1.5 nM. The same measure, in the same setting: the same measure for `CCCS(=O)(=O)Nc1ccc(F)c(C(=O)c2c[nH]c3ncc(Cl)cc23)c1F` [PLX4720]: 60 nM.

On to `Cn1cc(C2=C(c3cn(CCCN)c4ccccc34)C(=O)NC2=O)c2ccccc21` [RO-31-7549], for which the “Dose 1 (IC40)” value with S6pS240 amounted to 3500 nM. In the case of `O=[N+]([O-])c1ccc2c(c1)S(=O)(=O)C=C2` [Stattic], the “Dose 1 (IC40)” value in the assay with STAT3pY705 was determined as 600 nM.

In the case of `CO[C@H]1C[C@@H]2CC[C@@H](C)[C@@](O)(O2)C(=O)C(=O)N2CCCC[C@H]2C(=O)O[C@H]([C@H](C)C[C@@H]2CC[C@@H](OC(=O)C(C)(CO)CO)[C@H](OC)C2)CC(=O)[C@H](C)/C=C(\C)[C@@H](O)[C@@H](OC)C(=O)[C@H](C)C[C@H](C)/C=C/C=C/C=C/1C` [Temsirolimus], the “Dose 1 (IC40)” value with S6pS240 amounted to 0.3 nM. With `FC(F)c1nc2ccccc2n1-c1nc(N2CCOCC2)nc(N2CCOCC2)n1` [ZSTK474], the “Dose 1 (IC40)” value with AKTpS473 was 600 nM.
